Laboratory results taken from paper PMC4391943, “Novel Epigallocatechin-3-Gallate (EGCG) Derivative as a New Therapeutic Strategy for Reducing Neuropathic Pain after Chronic Constriction Nerve Injury in Mice” (PLoS ONE, 2015).
Read-outs that look alike come from different tables or passages of the source. Values belong to the compound of their own block, whether it stands above or below them.

Key:
[1] = Toxicity studies: body weight, food and fluid intake, histological examination; type: in vivo, mice; conditions: vs control animals (data not shown)
[2] = set-up: method as in PMID 22559865; conditions: daily doses of 5, 25 or 40 mg/Kg; cited from earlier work
[3] = Hepatic, renal and hematological function serum markers in treated mice; type: in vivo, Balb/c; conditions: for Hematocrit / Hemoglobin / Lymphocytes / Monocytes / Neutrophils / platelet count: Balb/c; for ALP (alkaline phosphatase), hepatic function / ALT (alanine transaminase), hepatic function / AST (aspartate transaminase), hepatic function / BUN (urea), renal function / Creatinin, renal function: Balb/c serum

SMILES: O=C(Oc1cccc2c(OC(=O)c3cc(O)c(O)c(O)c3)cccc12)c1cc(O)c(O)c(O)c1 [Compound 23, 1,5-Bis [(3,4,5-trihydroxybenzoyl)oxy] naphthalene]
histological examination of liver, heart, kidney lung and brain [1]: no microscopic evidence of drug induces toxicity
hepatic, renal and hematological function serum markers vs control [2]: no significant alteration

Hematocrit ([3]; 50 mg/Kg): 42.4 ± 2.2%
Hemoglobin ([3]; 50 mg/Kg): 14.2 ± 0.8 g/dL
Lymphocytes ([3]; 50 mg/Kg): 51.2 ± 13.9%
Monocytes ([3]; 50 mg/Kg): 1.4 ± 0.1%
Neutrophils ([3]; 50 mg/Kg): 32.0 ± 22.9%
platelet count ([3]; 50 mg/Kg): 826 10^3/µL
ALP (alkaline phosphatase), hepatic function ([3]; 50 mg/Kg): 97.2 ± 20.3 U/L
BUN (urea), renal function ([3]; 50 mg/Kg): 21.9 ± 7.5 mg/dL
Creatinin, renal function ([3]; 50 mg/Kg): 0.30 ± 0.1 mg/dL
Hematocrit ([3]; 75 mg/Kg): 38.3 ± 2.8%
Hemoglobin ([3]; 75 mg/Kg): 13.6 ± 0.3 g/dL
Lymphocytes ([3]; 75 mg/Kg): 50.2 ± 7.5%
Monocytes ([3]; 75 mg/Kg): 1.9 ± 1.4%
Neutrophils ([3]; 75 mg/Kg): 30.7 ± 8.1%
platelet count ([3]; 75 mg/Kg): 849 10^3/µL
ALP (alkaline phosphatase), hepatic function ([3]; 75 mg/Kg): 86.5 ± 30.3 U/L
BUN (urea), renal function ([3]; 75 mg/Kg): 21.1 ± 6.8 mg/dL
Creatinin, renal function ([3]; 75 mg/Kg): 0.31 ± 0.1 mg/dL
hepatic, renal and hematological function serum markers vs control ([3]; daily doses of 50 and 75 mg/Kg (S2 Table)): no significant alteration
SMILES: O=C(Oc1ccc(-c2ccc(OC(=O)c3cc(O)c(O)c(O)c3)cc2)cc1)c1cc(O)c(O)c(O)c1 [Compound 30, 4,4′-Bis [(3,4,5-trihydroxybenzoyl)oxy]-1,1′-biphenyl]
ALT (alanine transaminase), hepatic function ([3]; 50 mg/Kg): 210.3 ± 28.2 U/L
AST (aspartate transaminase), hepatic function ([3]; 50 mg/Kg): 266.5 + 80.3 U/L
ALT (alanine transaminase), hepatic function ([3]; 75 mg/Kg): 290.2 + 31 U/L
AST (aspartate transaminase), hepatic function ([3]; 75 mg/Kg): 320.3 + 45.5 U/L
histological examination of liver, heart, kidney lung and brain [1]: no microscopic evidence of drug induces toxicity
